The test system of this experiment is P388 leukemia ip, CD2F1 mice, survival T/C. Kind of experiment: NCI In Vivo Anticancer Drug Screen. Data for tumor model P388 Leukemia (intraperitoneal) in CD2F1 (CDF1) mice. The note with it: endpoint: median survival time, higher = longer survival. Summed up:
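Mice carrying the transplanted tumor received test compound or vehicle. Survival was recorded in each group, and the value is the treated-group measurement divided by that of the vehicle-treated control group.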

[1] abbreviates: dose: 120.0 mg/kg/injection, schedule: Q01DX005 (ip), vehicle: saline with Tween-80.
Where [2] appears, read: dose: 240.0 mg/kg/injection, schedule: Q01DX005 (ip), vehicle: saline with Tween-80.
Setting [3] is: dose: 60.0 mg/kg/injection, schedule: Q01DX005 (ip), vehicle: saline with Tween-80.
Where [4] appears, read: dose: 100.0 mg/kg/injection, schedule: Q01DX009 (ip), vehicle: saline.
[5] abbreviates: dose: 200.0 mg/kg/injection, schedule: Q01DX009 (ip), vehicle: saline.
Where [6] appears, read: dose: 50.0 mg/kg/injection, schedule: Q01DX005 (ip), vehicle: saline with Tween-80.
[7] abbreviates: dose: 100.0 mg/kg/injection, schedule: Q01DX005 (ip), vehicle: saline with Tween-80.
[8] abbreviates: dose: 200.0 mg/kg/injection, schedule: Q01DX005 (ip), vehicle: saline with Tween-80.
The mark [9] stands for this setting: dose: 25.0 mg/kg/injection, schedule: Q01DX009 (ip), vehicle: saline.
The mark [10] stands for this setting: dose: 50.0 mg/kg/injection, schedule: Q01DX009 (ip), vehicle: saline.

SMILES strings stand for the structures. Several values for one entry are separate records, joined by “and”; a condition that tells them apart may be missing. Identical values can stand only once. Toxic doses and inconclusive results are not listed.

Turning to `C/C(=N\Nc1nncn2cccc12)c1ccccc1`, the T/C was 113 % of control (dose: 100.0 mg/kg/injection, schedule: Q04DX002 (ip), vehicle: saline with Tween-80); 120 % of control (dose: 200.0 mg/kg/injection, schedule: Q04DX002 (ip), vehicle: saline with Tween-80); 124 % of control (dose: 400.0 mg/kg/injection, schedule: Q04DX002 (ip), vehicle: saline with Tween-80).

Consider `CCN(CC)P1(=O)OC(c2ccccc2)=CCN1c1ccc(OC)cc1` (configuration not stated), for which the T/C (dose: 50.0 mg/kg/injection, schedule: Q01DX005 (ip), vehicle: Klucel (hydroxypropylcellulose) (HPC)) was 102 % of control; the T/C (dose: 100.0 mg/kg/injection, schedule: Q01DX005 (ip), vehicle: Klucel (hydroxypropylcellulose) (HPC)) is 110 % of control; the T/C (dose: 200.0 mg/kg/injection, schedule: Q01DX005 (ip), vehicle: Klucel (hydroxypropylcellulose) (HPC)) was 103 % of control.

For the compound `CC(Nc1nncs1)Nc1nncs1`, the T/C runs as follows: (dose: 30.0 mg/kg/injection, schedule: Q01DX005 (ip), vehicle: saline with Tween-80) 105 % of control; under setting [1], 159 % of control and 162 % of control; under setting [2], 160 % of control and 170 % of control.

For `CS(=O)CCCC#N` (configuration not stated), the T/C is 115 % of control (dose: 18.75 mg/kg/injection, schedule: Q01DX009 (ip), vehicle: saline with Tween-80); 100 % of control (dose: 37.5 mg/kg/injection, schedule: Q01DX009 (ip), vehicle: saline with Tween-80); 110 % of control (dose: 75.0 mg/kg/injection, schedule: Q01DX009 (ip), vehicle: saline with Tween-80); 100 % of control (dose: 150.0 mg/kg/injection, schedule: Q01DX009 (ip), vehicle: saline with Tween-80); 105 % of control (dose: 300.0 mg/kg/injection, schedule: Q01DX009 (ip), vehicle: saline with Tween-80).

Regarding `COc1cc(C=NC2CCCCC2)cc(OC)c1OC`, the T/C (dose: 100.0 mg/kg/injection, schedule: Q01DX001 (ip), vehicle: saline) is 104 % of control; the T/C (dose: 200.0 mg/kg/injection, schedule: Q01DX001 (ip), vehicle: saline) is 101 % of control; the T/C (dose: 400.0 mg/kg/injection, schedule: Q01DX001 (ip), vehicle: saline) was 99 % of control.

`O=C(Nc1cccc(C(F)(F)F)c1)Oc1ccc(Cl)c2cccnc12`: the T/C is, setting by setting: under setting [3], 99 % of control; under setting [1], 98 % of control; under setting [2], 105 % of control.

Take `CCOC(=O)CC(CC(=O)OCC)(C(=O)OCC)C(=O)OCC`: the T/C reads like this: (dose: 50.0 mg/kg/injection, schedule: Q01DX009 (ip), vehicle: saline with Tween-80) 92 % of control; (dose: 100.0 mg/kg/injection, schedule: Q01DX009 (ip), vehicle: saline with Tween-80) 100 % of control; (dose: 200.0 mg/kg/injection, schedule: Q01DX009 (ip), vehicle: saline with Tween-80) 96 % of control; (dose: 400.0 mg/kg/injection, schedule: Q01DX009 (ip), vehicle: saline with Tween-80) 100 % of control.

With `CC(=O)Oc1c(C)c(OC(C)=O)c2[nH]c(Cl)c(C=O)c2c1OC(C)=O`, the T/C is, setting by setting: (dose: 100.0 mg/kg/injection, schedule: Q01DX001 (ip), vehicle: Klucel (hydroxypropylcellulose) (HPC)) 108 % of control; (dose: 200.0 mg/kg/injection, schedule: Q01DX001 (ip), vehicle: Klucel (hydroxypropylcellulose) (HPC)) 102 % of control.

For `COc1ccc(CN)cc1OC`, the T/C by setting is: under setting [4], 100 % of control; under setting [5], 105 % of control.

Regarding `COc1cccc2c1C(=O)c1c(O)c3c(c(O)c1C2=O)C[C@@](O)(C(C)=O)C[C@@H]3OC1CC(NC(C)C)C(O)C(C)O1` (some centres not stated), the T/C by setting is: (dose: 0.2 mg/kg/injection, schedule: Q01DX009 (ip), vehicle: water) 97 % of control; (dose: 0.39 mg/kg/injection, schedule: Q01DX009 (ip), vehicle: water) 103 % of control; (dose: 0.78 mg/kg/injection, schedule: Q01DX009 (ip), vehicle: water) 115 % of control; (dose: 4.7 mg/kg/injection, schedule: Q04DX003 (ip), vehicle: water) 109 % of control; (dose: 6.25 mg/kg/injection, schedule: Q01DX009 (ip), vehicle: water) 157 % of control and 174 % of control; (dose: 9.4 mg/kg/injection, schedule: Q04DX003 (ip), vehicle: water) 107 % of control and 113 % of control. Also, the T/C (dose: 12.5 mg/kg/injection, schedule: Q01DX009 (ip), vehicle: water) was 199 % of control; the T/C (dose: 18.8 mg/kg/injection, schedule: Q04DX003 (ip), vehicle: water) is 120 % of control; the T/C (dose: 150.0 mg/kg/injection, schedule: Q04DX003 (ip), vehicle: water) is 106 % of control and 91 % of control.

Regarding `O=[N+]([O-])C1CCC(N=Nc2c(O)ccc3ccccc23)CC1` (configuration not stated), the T/C is, setting by setting: under setting [3], 96 % of control; under setting [1], 99 % of control; under setting [2], 99 % of control.

With `Nc1nc2ccccc2[nH]1`, the T/C runs as follows: (dose: 20.0 mg/kg/injection, schedule: Q04DX003 (ip), vehicle: other) 101 % of control; (dose: 20.0 mg/kg/injection, schedule: Q04DX003 (oral), vehicle: other) 102 % of control; (dose: 40.0 mg/kg/injection, schedule: Q04DX003 (ip), vehicle: other) 100 % of control; (dose: 40.0 mg/kg/injection, schedule: Q04DX003 (oral), vehicle: other) 100 % of control; (dose: 80.0 mg/kg/injection, schedule: Q04DX003 (ip), vehicle: other) 101 % of control; (dose: 80.0 mg/kg/injection, schedule: Q04DX003 (oral), vehicle: other) 102 % of control. The T/C was 99 % of control (dose: 160.0 mg/kg/injection, schedule: Q04DX003 (ip), vehicle: other) and 102 % of control (dose: 160.0 mg/kg/injection, schedule: Q04DX003 (oral), vehicle: other).

In the case of `O=C(O)N1CCc2c(sc3ccccc23)C1`, the T/C (dose: 12.5 mg/kg/injection, schedule: Q01DX001 (ip), vehicle: Klucel (hydroxypropylcellulose) (HPC)) was 103 % of control; the T/C (dose: 25.0 mg/kg/injection, schedule: Q01DX001 (ip), vehicle: Klucel (hydroxypropylcellulose) (HPC)) was 98 % of control; the T/C (dose: 50.0 mg/kg/injection, schedule: Q01DX001 (ip), vehicle: Klucel (hydroxypropylcellulose) (HPC)) was 100 % of control and 104 % of control.

Turning to `CCOC(=O)c1c[nH]c2ccc(N(CCO)CCO)cc12`, the T/C is, setting by setting: under setting [6], 102 % of control; under setting [7], 105 % of control; under setting [8], 108 % of control.

Take `c1ccc(Nc2nnnn2C2CCCCC2)cc1`: the T/C was 101 % of control (dose: 6.25 mg/kg/injection, schedule: Q01DX009 (ip), vehicle: saline); 105 % of control (dose: 12.5 mg/kg/injection, schedule: Q01DX009 (ip), vehicle: saline); 100 % of control under setting [9]; 108 % of control under setting [10].

With `COc1cc(C2c3cc4c(cc3OC3(O)CCCC23)OCO4)cc(OC)c1OC` (configuration not stated), the T/C is, setting by setting: under setting [3], 91 % of control; under setting [1], 93 % of control; under setting [2], 99 % of control.

With `CNC(=O)N(C)C(=O)c1ccncc1C(=O)N(C(=O)NC1CCCCC1)C1CCCCC1`, the T/C is, setting by setting: under setting [6], 98 % of control; under setting [7], 89 % of control; under setting [8], 89 % of control.

On to `CC1(C)OCC(C2OC(O)C3OC(C)(C)OC32)O1` (configuration not stated), for which the T/C (dose: 50.0 mg/kg/injection, schedule: Q01DX005 (ip), vehicle: saline) is 100 % of control; the T/C (dose: 100.0 mg/kg/injection, schedule: Q01DX005 (ip), vehicle: saline) is 101 % of control; the T/C (dose: 200.0 mg/kg/injection, schedule: Q01DX005 (ip), vehicle: saline) is 107 % of control.

For `COC(=O)c1ccc(N=NN(C)C)cc1`, the T/C under setting [9] is 100 % of control and 97 % of control; the T/C (dose: 25.0 mg/kg/injection, schedule: Q01DX009 (ip), vehicle: suspension in saline) was 103 % of control; the T/C under setting [10] is 113 % of control and 92 % of control; the T/C (dose: 50.0 mg/kg/injection, schedule: Q01DX009 (ip), vehicle: suspension in saline) is 91 % of control; the T/C under setting [4] is 103 % of control and 94 % of control; the T/C under setting [5] was 108 % of control. The T/C (dose: 200.0 mg/kg/injection, schedule: Q01DX009 (ip), vehicle: suspension in saline) is 101 % of control.

On to `CC(=O)Nc1cccc([N+](=O)[O-])c1`, for which the T/C is, setting by setting: (dose: 50.0 mg/kg/injection, schedule: Q04DX003 (ip), vehicle: saline with Tween-80) 110 % of control; (dose: 100.0 mg/kg/injection, schedule: Q04DX003 (ip), vehicle: saline with Tween-80) 110 % of control; (dose: 200.0 mg/kg/injection, schedule: Q04DX003 (ip), vehicle: saline with Tween-80) 110 % of control.

For the origin of these results see PubChem BioAssay AID330 (DTP/NCI, 2004).
